Results reported in PubChem BioAssay AID2060352 (Molecular Pharmacology Branch, DTP, NCI, 2025).

Test system: 616215-338-R-J1-PDC spheroid with HUVEC/MSC, viability
Experiment: Anticancer human tumor 616215-338-R-J1-PDC patient-derived colon adenocarcinoma cell line growth inhibition [TAK]
Conditions: for viability, T/C: stronger effect = lower value
From the text: Combinatorial screen of targeted agents with TAK-243 and ipatasertib in multi-cell type tumor spheroids
A high-throughput screen of multi-cell type tumor spheroids was designed to identify active combinations of targeted small molecules and TAK-243 or ipatasertib. Complex spheroids include a stromal component modeled by human endothelial cells (HUVEC) and fibroblasts modeled by human mesenchymal stem cells (MSCs). The concentration ranges selected for each drug and investigational agent were based upon clinically achievable concentrations if the clinical Cmax of the agent was known.
Compounds. The drugs and investigational agents: TAK-243 (785004), ipatasertib (767898), everolimus (733504), selumetinib (741078), bortezomib (756655), trametinib (758246), ixazomib (758254), vemurafenib (761431), dabrafenib (764134), sapanisertib (764658), alpelisib (765974), and copanlisib (816437), were obtained from the National Cancer Institute (NCI) Developmental Therapeutics Program Chemical Repository. The FDA-approved anticancer drug set is available from the NCI Developmental Therapeutics Program. […] The stock solutions were prepared in dimethyl sulfoxide (DMSO, Sigma-Aldrich, St. Louis, MO, cat. D2650) at 800-fold the tested concentration and stored at -70 degrees C prior to their use. All drugs and investigational agents were tested over a range starting from a high concentration at or near the clinical Cmax and decreasing in half-log increments. If the clinical Cmax for an agent had not been determined, the highest concentration tested was 10 microM.
NCI60 Cell Culture. NCI60 cell lines were obtained from the NCI Developmental Therapeutics Program Tumor Repository. For each lot of cells, the Repository performed Applied Biosystems AmpFLSTR Identifiler testing with PCR amplification to confirm consistency with the published Identifier STR profile for each cell line. Cells were kept in continuous culture for no more than 20 passages. The optimal seeding densities for each of the cell lines at each time point assessed were determined prior to performing the concentration response studies. Briefly, the NCI60 human tumor lines were grown as monolayers in RPMI 1640 medium supplemented with 10% FBS and 2 mmol/L L-glutamine.
An additional 2 lines were from the NCI60 cell line panel including melanomas, MALME-3M and SK-MEL-2. Pooled donor human umbilical vein endothelial cells (HUVEC, Lonza, cat. CC-2519) and human mesenchymal stem cells (hMSC, Lonza, cat. PT-2501) were purchased from Lonza (Walkersville, MD).
PDMR cell lines were grown in complete medium (DC medium): Dulbecco's modified Eagle's medium (DMEM)/F12 supplemented with 5% fetal bovine serum (FBS), 2 mM L-glutamine, 100 U/mL penicillin and 100 µg/ml streptomycin, 0.4 µg/ml hydrocortisone, 10 ng/ml epidermal growth factor (EGF) recombinant human protein, 24 µg/mL adenine, and 0.1 mg/mL primocin. During culture from frozen stock vials, PDMR cells were cultured in the same medium containing 10 µM Y-27632 (see Table 3). The PDCs were cultured in complete DMEM/F12 media without 10 microM Y-27632 dihydrochloride for at least two passages prior to the screen. The pooled donor HUVEC and hMSC were cultured in endothelial cell growth medium 2 (PromoCell, Heidelberg, Germany, cat. C-22011) and mesenchymal stem cell growth medium 2 (PromoCell, cat. C-28009), respectively. For all experiments, HUVEC and hMSC were used at passages </=5.
For the pre-screen, cell seeding densities were determined from a titration spanning the range from 5,000 to 313 cells per well. The mct-spheroids including 60% malignant cells, 25% HUVEC and 15% MSC dispensed as a mixture into U-bottom Ultra-Low Attachment 384-well plates (Corning, NY)
High-throughput Drug Combination Screening.
Prior to their inoculation into 384-well plates, malignant cells, HUVEC, and hMSC were removed from T flasks using TrypLE express (Thermo Fisher Scientific, cat. 12605036) and harvested by centrifugation for 5 min at 233 x g. […]

[1] = curve of first compound, second compound 0.3 µM
[2] = curve of first compound, second compound 0.949 µM
[3] = curve of first compound, second compound 3 µM
[4] = curve of first compound, second compound 9.49 µM
[5] = curve of first compound, second compound 30 µM
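Further: spheroids exposed to drugs for 7 days before readout.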

Question: Which results are given for `CC(C)NCC(C(=O)N1CCN(c2ncnc3c2C(C)CC3O)CC1)c1ccc(Cl)cc1` (centres undefined)?
Answer: viability, T/C (compound 9.49 µM): 26.9% [middle of 10 runs]; viability, T/C (compound 30 µM): 12.7% [middle of 10 runs]; IC50 (compound alone, run of 02/20/2020): 6.46 µM [middle of 5 runs]; IC50 (compound alone, run of 03/19/2020): 5.01 µM [middle of 5 runs]

Question: For `CC(=O)Nc1cccc(-n2c(=O)n(C3CC3)c(=O)c3c(Nc4ccc(I)cc4F)n(C)c(=O)c(C)c32)c1` + CC(C)NCC(C(=O)N1CCN(c2ncnc3c2C(C)CC3O)CC1)c1ccc(Cl)cc1, which IC50 [1] is on record?
Answer: 4.61 nM

Question: And the IC50 [2]?
Answer: 1.65 nM

Question: And the IC50 [3]?
Answer: 0.213 nM

Question: And the IC50 [4]?
Answer: < 0.0949 nM

Question: And the IC50 [5]?
Answer: < 0.0949 nM

Question: And the viability, T/C (second compound 0.3 µM, first compound 94.9 pM)?
Answer: 131%

Question: What about the viability, T/C (second compound 0.3 µM, first compound 0.0003 µM) of the same molecule?
Answer: 132%

Question: What about the viability, T/C (second compound 0.3 µM, first compound 0.000949 µM) of the same molecule?
Answer: 125%

Question: What about the viability, T/C (second compound 0.3 µM, first compound 0.003 µM) of the same molecule?
Answer: 69.9%

Question: And the viability, T/C (second compound 0.3 µM, first compound 0.00949 µM)?
Answer: 16.6%

Question: What about the viability, T/C (second compound 0.3 µM, first compound 0.03 µM) of the same molecule?
Answer: 3.1%

Question: What about the viability, T/C (second compound 0.949 µM, first compound 94.9 pM) of the same molecule?
Answer: 134%

Question: What about the viability, T/C (second compound 0.949 µM, first compound 0.0003 µM) of the same molecule?
Answer: 130%

Question: And the viability, T/C (second compound 0.949 µM, first compound 0.000949 µM)?
Answer: 69.7%

Question: What about the viability, T/C (second compound 0.949 µM, first compound 0.003 µM) of the same molecule?
Answer: 28.1%

Question: And the viability, T/C (second compound 0.949 µM, first compound 0.00949 µM)?
Answer: 9.36%

Question: And the viability, T/C (second compound 0.949 µM, first compound 0.03 µM)?
Answer: 1.03%

Question: And the viability, T/C (second compound 3 µM, first compound 94.9 pM)?
Answer: 57.9%

Question: And the viability, T/C (second compound 3 µM, first compound 0.0003 µM)?
Answer: 47.6%

Question: And the viability, T/C (second compound 3 µM, first compound 0.000949 µM)?
Answer: 25.3%

Question: And the viability, T/C (second compound 3 µM, first compound 0.003 µM)?
Answer: 11.9%

Question: And the viability, T/C (second compound 3 µM, first compound 0.00949 µM)?
Answer: 4.2%

Question: What about the viability, T/C (second compound 3 µM, first compound 0.03 µM) of the same molecule?
Answer: 0.83%

Question: What about the viability, T/C (second compound 9.49 µM, first compound 94.9 pM) of the same molecule?
Answer: 22%

Question: What about the viability, T/C (second compound 9.49 µM, first compound 0.0003 µM) of the same molecule?
Answer: 18.4%

Question: And the viability, T/C (second compound 9.49 µM, first compound 0.000949 µM)?
Answer: 12.3%

Question: And the viability, T/C (second compound 9.49 µM, first compound 0.003 µM)?
Answer: 6.63%

Question: What about the viability, T/C (second compound 9.49 µM, first compound 0.00949 µM) of the same molecule?
Answer: 2.23%

Question: And the viability, T/C (second compound 9.49 µM, first compound 0.03 µM)?
Answer: 1.12%

Question: And the viability, T/C (second compound 30 µM, first compound 94.9 pM)?
Answer: 10.7%

Question: And the viability, T/C (second compound 30 µM, first compound 0.0003 µM)?
Answer: 9.94%

Question: What about the viability, T/C (second compound 30 µM, first compound 0.000949 µM) of the same molecule?
Answer: 6.33%

Question: And the viability, T/C (second compound 30 µM, first compound 0.003 µM)?
Answer: 3.43%

Question: What about the viability, T/C (second compound 30 µM, first compound 0.00949 µM) of the same molecule?
Answer: 1.53%

Question: And the viability, T/C (second compound 30 µM, first compound 0.03 µM)?
Answer: 1.15%

Question: For `CC(C)CC(NC(=O)C(Cc1ccccc1)NC(=O)c1cnccn1)B(O)O` (centres undefined) + CC(C)NCC(C(=O)N1CCN(c2ncnc3c2C(C)CC3O)CC1)c1ccc(Cl)cc1, which IC50 [1] is on record?
Answer: > 10 nM

Question: What about the IC50 [2] of the same molecule?
Answer: > 10 nM

Question: And the IC50 [3]?
Answer: 5.34 nM

Question: And the IC50 [4]?
Answer: < 0.0316 nM

Question: What about the IC50 [5] of the same molecule?
Answer: < 0.0316 nM

Question: And the viability, T/C (second compound 0.3 µM, first compound 31.6 pM)?
Answer: 90.8%

Question: What about the viability, T/C (second compound 0.3 µM, first compound 0.0001 µM) of the same molecule?
Answer: 99.2%

Question: What about the viability, T/C (second compound 0.3 µM, first compound 0.000316 µM) of the same molecule?
Answer: 90.8%

Question: And the viability, T/C (second compound 0.3 µM, first compound 0.001 µM)?
Answer: 95.1%

Question: What about the viability, T/C (second compound 0.3 µM, first compound 0.00316 µM) of the same molecule?
Answer: 96.6%

Question: What about the viability, T/C (second compound 0.3 µM, first compound 0.01 µM) of the same molecule?
Answer: 112%

Question: And the viability, T/C (second compound 0.949 µM, first compound 31.6 pM)?
Answer: 114%

Question: What about the viability, T/C (second compound 0.949 µM, first compound 0.0001 µM) of the same molecule?
Answer: 109%

Question: What about the viability, T/C (second compound 0.949 µM, first compound 0.000316 µM) of the same molecule?
Answer: 121%

Question: What about the viability, T/C (second compound 0.949 µM, first compound 0.001 µM) of the same molecule?
Answer: 112%

Question: What about the viability, T/C (second compound 0.949 µM, first compound 0.00316 µM) of the same molecule?
Answer: 111%

Question: And the viability, T/C (second compound 0.949 µM, first compound 0.01 µM)?
Answer: 80.3%

Question: What about the viability, T/C (second compound 3 µM, first compound 31.6 pM) of the same molecule?
Answer: 81.1%

Question: And the viability, T/C (second compound 3 µM, first compound 0.0001 µM)?
Answer: 88.7%

Question: And the viability, T/C (second compound 3 µM, first compound 0.000316 µM)?
Answer: 88.7%

Question: And the viability, T/C (second compound 3 µM, first compound 0.001 µM)?
Answer: 80.9%

Question: What about the viability, T/C (second compound 3 µM, first compound 0.00316 µM) of the same molecule?
Answer: 84.8%

Question: What about the viability, T/C (second compound 3 µM, first compound 0.01 µM) of the same molecule?
Answer: 8.39%

Question: What about the viability, T/C (second compound 9.49 µM, first compound 31.6 pM) of the same molecule?
Answer: 33.9%

Question: And the viability, T/C (second compound 9.49 µM, first compound 0.0001 µM)?
Answer: 35.2%

Question: And the viability, T/C (second compound 9.49 µM, first compound 0.000316 µM)?
Answer: 26.4%

Question: What about the viability, T/C (second compound 9.49 µM, first compound 0.001 µM) of the same molecule?
Answer: 29.8%

Question: And the viability, T/C (second compound 9.49 µM, first compound 0.00316 µM)?
Answer: 32.2%

Question: What about the viability, T/C (second compound 9.49 µM, first compound 0.01 µM) of the same molecule?
Answer: 0.75%

Question: And the viability, T/C (second compound 30 µM, first compound 31.6 pM)?
Answer: 15.3%

Question: And the viability, T/C (second compound 30 µM, first compound 0.0001 µM)?
Answer: 15.2%

Question: What about the viability, T/C (second compound 30 µM, first compound 0.000316 µM) of the same molecule?
Answer: 14.1%

Question: What about the viability, T/C (second compound 30 µM, first compound 0.001 µM) of the same molecule?
Answer: 13.2%

Question: What about the viability, T/C (second compound 30 µM, first compound 0.00316 µM) of the same molecule?
Answer: 15.1%

Question: What about the viability, T/C (second compound 30 µM, first compound 0.01 µM) of the same molecule?
Answer: 0.24%
